Source: patent US7511047B2, “Kinase inhibitors” (Cytopia Research Pty Ltd, priority 2002, dated 2009)

How the values were obtained:
Format in all cases: biochemical
Jak2 = biological target: T1, Jak2 (Homo sapiens, UniProt O60674); assay: JAK2 kinase domain assay (ELISA or Alphascreen); settings: capacity to inhibit 50% of activity at 50 μM; read-out: Jak2 inhibitory activity
T1 construct: The kinase domain of humanJAK2 was amplified from U937mRNA; His tag (from pFastBac HTc vector) (N); made in house; host or cells: baculovirus; Sf9 insect cells for virus, High Five cells for large-scale production
T1 sequence (O60674 849-1124 limits assumed): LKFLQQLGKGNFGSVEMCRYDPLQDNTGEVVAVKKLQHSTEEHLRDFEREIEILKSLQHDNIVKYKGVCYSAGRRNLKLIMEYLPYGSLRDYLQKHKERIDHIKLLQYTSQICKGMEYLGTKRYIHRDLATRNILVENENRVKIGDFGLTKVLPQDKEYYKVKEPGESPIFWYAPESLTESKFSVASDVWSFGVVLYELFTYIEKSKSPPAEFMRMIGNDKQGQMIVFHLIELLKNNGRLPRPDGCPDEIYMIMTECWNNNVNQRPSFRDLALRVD
Method: (§1) For screening purposes, compounds were diluted in 96 well plates at a concentration of 20 μM. Plates were warmed at 37° C. for 30 minutes before assay.
(§2) • JAK1 PCR products were cloned into the pFastBac HTb expression vector (Gibco) via the Xho I and Kpn I sites. The JAK1 plasmid was then transformed into competent DH10Bac cells (Gibco), and the recombinant baculovirus produced prepared for transfection into Sf9 insect cells. JAK2 • The kinase domain of humanJAK2 was amplified from U937mRNA using the polymerase chain reaction with the following primers:
• JAK2 PCR products were cloned into the pFastBac HTc expression vector (Gibco) via the Sal I and Not I sites. The JAK2 plasmid was then transformed into competent DH10Bac cells (Gibco), and the recombinant baculovirus produced prepared for transfection into Sf9 insect cells. JAK3 • The kinase domain of humanJAK3 was amplified from U937mRNA using the polymerase chain reaction with the following primers: […]
(§3) Baculovirus preparations from each of the JAK family members were infected into five litres of High Five cells (Invitrogen) grown in High Five serum free medium (Invitrogen) to a cell density of approximately 1-2×10^6 cells/ml. Cells are infected with virus at a MOI of 0.8-3.0. Cells were harvested and lysed. JAK kinase domains were purified by affinity chromatography on a Probond (Invitrogen) nickel chelate affinity column.
(§4) Kinase assays were performed either in a 96 well capture-based ELISA assay or in 384 well Optiplates (Packard) using an Alphascreen Protein Tyrosine Kinase kit. In either casse using approximately 1.5 μg of affinity purified PTK domain in the presence of 50 mM HEPES, pH 7.5, 10 mM MgCl2, 150 mM NaCl and 10 μM-1 mM ATP. The biotinylated substrate biotin-EGPWLEEEEEAYGWMDF-NH2 (SEQ ID NO:9) (final concentration 5 μM) was used as substrate. In the ELISA assay tyrosine phosphorylation was quantitated following transfer to an avidin coated ELISA plate using peroxidase-linked anti-phospho-tyrosine antibody PY20. In the Alphascreen assay, Alphascreen phosphotyrosine acceptor beads followed by streptavidin donor beads were added under subdued light. The ELISA plates were read on a BMG Fluorostar, the Alphascreen plates were read on a Packard Fusion Alpha. Inhibitors were added to the assays fifteen minutes prior to the addition of ATP. Inhibitors were added in aqueous DMSO, with DMSO concentrations never exceeding 1%.

Jak3 = biological target: T2, Jak3 (Homo sapiens, UniProt P52333); assay: JAK3 kinase domain assay (ELISA or Alphascreen); settings: capacity to inhibit 50% of activity at 50 μM; read-out: Jak3 inhibitory activity
T2 construct: The kinase domain of humanJAK3 was amplified from U937mRNA; His tag (from pFastBac HTb vector) (N); made in house; host or cells: baculovirus; Sf9 insect cells for virus, High Five cells for large-scale production
T2 sequence (P52333 822-1111 limits assumed): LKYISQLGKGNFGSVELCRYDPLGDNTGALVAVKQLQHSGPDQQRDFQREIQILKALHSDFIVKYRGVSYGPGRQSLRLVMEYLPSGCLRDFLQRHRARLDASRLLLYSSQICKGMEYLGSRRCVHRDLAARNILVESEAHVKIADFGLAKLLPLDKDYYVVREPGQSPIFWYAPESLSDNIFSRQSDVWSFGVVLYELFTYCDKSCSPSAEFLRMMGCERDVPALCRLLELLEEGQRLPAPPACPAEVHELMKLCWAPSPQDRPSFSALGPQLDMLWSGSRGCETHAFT
Method: as §1
• JAK2 PCR products were cloned into the pFastBac HTc expression vector (Gibco) via the Sal I and Not I sites. The JAK2 plasmid was then transformed into competent DH10Bac cells (Gibco), and the recombinant baculovirus produced prepared for transfection into Sf9 insect cells. JAK3 • The kinase domain of humanJAK3 was amplified from U937mRNA using the polymerase chain reaction with the following primers:
as §2, with “JAK3” for “JAK1”, “TYK2” for “JAK2”, “humanTYK2” for “humanJAK2”, “A549 mRNA” for “U937mRNA”, “primers: […]” for “primers:”
as §3, §4

abl = biological target: T3, abl (Homo sapiens, UniProt P00519); assay: abl kinase assay (ELISA or Alphascreen); settings: capacity to inhibit 50% of activity at 50 μM; read-out: abl inhibitory activity
T3 sequence (P00519 242-493 limits assumed): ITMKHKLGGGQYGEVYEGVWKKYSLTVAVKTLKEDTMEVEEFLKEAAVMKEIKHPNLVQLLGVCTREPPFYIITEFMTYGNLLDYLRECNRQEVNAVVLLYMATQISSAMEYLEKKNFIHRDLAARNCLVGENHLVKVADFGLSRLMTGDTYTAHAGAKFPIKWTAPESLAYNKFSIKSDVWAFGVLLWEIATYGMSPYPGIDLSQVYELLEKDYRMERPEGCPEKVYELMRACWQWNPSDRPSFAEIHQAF
Method: as §1, §4

hck = hck (Homo sapiens, UniProt P08631); assay: hck kinase assay (ELISA or Alphascreen); settings: capacity to inhibit 50% of activity at 50 μM; read-out: hck inhibitory activity
Sequence of hck (P08631 262-515 limits assumed, species assumed): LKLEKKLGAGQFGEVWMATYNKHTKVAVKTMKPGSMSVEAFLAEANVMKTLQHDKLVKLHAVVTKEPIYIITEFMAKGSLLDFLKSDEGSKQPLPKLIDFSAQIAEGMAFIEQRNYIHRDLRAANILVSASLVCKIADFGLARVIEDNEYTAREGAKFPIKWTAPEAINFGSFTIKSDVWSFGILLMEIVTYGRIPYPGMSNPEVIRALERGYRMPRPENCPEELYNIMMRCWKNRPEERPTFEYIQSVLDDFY
Method: as §1, §4

kdr = kdr (Homo sapiens, UniProt P35968); assay: kdr kinase assay (ELISA or Alphascreen); settings: capacity to inhibit 50% of activity at 50 μM; read-out: kdr inhibitory activity
Sequence of kdr (P35968 834-1162 limits assumed, species assumed): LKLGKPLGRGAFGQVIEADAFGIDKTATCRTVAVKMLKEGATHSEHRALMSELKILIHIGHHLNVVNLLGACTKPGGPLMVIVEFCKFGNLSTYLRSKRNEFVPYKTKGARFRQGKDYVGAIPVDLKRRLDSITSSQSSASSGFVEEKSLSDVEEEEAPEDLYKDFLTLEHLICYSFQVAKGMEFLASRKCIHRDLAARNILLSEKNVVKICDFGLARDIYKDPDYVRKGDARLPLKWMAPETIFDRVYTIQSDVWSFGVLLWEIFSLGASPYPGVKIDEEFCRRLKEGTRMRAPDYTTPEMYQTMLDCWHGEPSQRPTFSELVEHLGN
Method: as §1, §4

Row | inhibition at 50 µM (Jak2) | inhibition at 50 µM (Jak3) | inhibition at 50 µM (abl) | inhibition at 50 µM (hck) | inhibition at 50 µM (kdr) | Compound
1 | < 50% | < 50% | < 50% | < 50% | < 50% | C[C@@H](Nc1cncc(-n2cnc3ncccc32)n1)c1ccccc1
2 | > 50% | > 50% | > 50% | > 50% | > 50% | C[C@H](Nc1cncc(-n2cnc3ccncc32)n1)c1ccccc1
3 | > 50% | > 50% | < 50% | > 50% | > 50% | C[C@H](Nc1cncc(-n2cnc3ccc(CO)cc32)n1)c1ccccc1
4 | > 50% | > 50% | > 50% | > 50% | > 50% | C[C@H](Nc1cncc(-n2cnc3cnccc32)n1)c1ccccc1
5 | > 50% | > 50% | > 50% | > 50% | > 50% | C[C@H](Nc1cncc(-n2cnc3cc(-c4cccnc4)ccc32)n1)c1ccccc1
6 | > 50% | > 50% | > 50% | > 50% | > 50% | CC(Nc1cncc(-n2cnc3ccccc32)n1)c1cccnc1 (stereo not shown)
7 | > 50% | < 50% | > 50% | > 50% | > 50% | CC(Nc1cncc(-n2cnc3ccccc32)n1)c1ccc(F)cc1 (stereo not shown)
8 | > 50% | > 50% | < 50% | < 50% | > 50% | C[C@H](Nc1cncc(-n2cnc3ccccc32)n1)c1ccc(-c2cccnc2)cc1
9 | > 50% | > 50% | > 50% | > 50% | > 50% | C[C@H](Nc1cncc(-n2cnc3cc(Br)ccc32)n1)c1ccccc1

More lines, now with the values behind:

Row | Compound | inhibition at 50 µM (Jak2) | inhibition at 50 µM (Jak3) | inhibition at 50 µM (abl) | inhibition at 50 µM (hck) | inhibition at 50 µM (kdr)
10 | c1ccc(CNc2cncc(-n3cnc4ccccc43)n2)cc1 | > 50% | > 50% | > 50% | > 50% | < 50%
11 | Fc1ccc(CNc2cncc(-n3cnc4ccccc43)n2)cc1 | > 50% | < 50% | > 50% | > 50% | < 50%
12 | CC(=O)Nc1ccc2c(c1)ncn2-c1cncc(N[C@@H](C)c2ccccc2)n1 | < 50% | < 50% | > 50% | > 50% | > 50%
13 | C[C@H](Nc1cncc(-n2cnc3ccc(NC(=O)c4ccccc4)cc32)n1)c1ccccc1 | < 50% | < 50% | > 50% | > 50% | > 50%
14 | C[C@H](Nc1cncc(-n2cnc3cc(NC(=O)c4ccccc4)ccc32)n1)c1ccccc1 | < 50% | < 50% | > 50% | > 50% | > 50%
15 | C[C@H](Nc1cncc(-n2cnc3cc(NCc4cccnc4)ccc32)n1)c1ccccc1 | > 50% | > 50% | > 50% | > 50% | > 50%
16 | C[C@H](Nc1cncc(-n2cnc3ccc(NC(=O)c4cnccn4)cc32)n1)c1ccccc1 | > 50% | < 50% | < 50% | > 50% | > 50%
17 | C[C@H](Nc1cncc(-n2cnc3cc(CN4CCN(C)CC4)ccc32)n1)c1ccccc1 | < 50% | < 50% | < 50% | > 50% | > 50%
18 | C[C@H](Nc1cncc(-n2cnc3cc(CO)ccc32)n1)c1ccccc1 | > 50% | < 50% | < 50% | > 50% | > 50%
19 | C[C@H](Nc1cncc(-n2cnc3cc(C(=O)NCCN(C)C)ccc32)n1)c1ccccc1 | > 50% | < 50% | > 50% | > 50% | > 50%
20 | C[C@H](Nc1cncc(-n2cnc3cc(NC(=O)[C@@H]4CCCN4C(=O)OC(C)(C)C)ccc32)n1)c1ccccc1 | > 50% | < 50% | > 50% | > 50% | > 50%
21 | C[C@H](Nc1cncc(-n2cnc3cc(NC(=O)C4CCCN4)ccc32)n1)c1ccccc1 (stereo partly shown) | > 50% | > 50% | < 50% | > 50% | > 50%
22 | C[C@H](Nc1cncc(-n2cnc3cc(C(=O)NCCCn4ccnc4)ccc32)n1)c1ccccc1 | > 50% | < 50% | > 50% | > 50% | > 50%
23 | C[C@H](Nc1cncc(-n2cnc3cc(C(=O)NCCCN4CCOCC4)ccc32)n1)c1ccccc1 | > 50% | > 50% | > 50% | > 50% | > 50%
24 | C[C@H](Nc1cncc(-n2cnc3cc(-c4ccncc4)ccc32)n1)c1ccccc1 | > 50% | < 50% | > 50% | > 50% | > 50%
25 | C[C@H](Nc1cncc(-n2cnc3ccc(C(=O)NCCCN4CCOCC4)cc32)n1)c1ccccc1 | > 50% | < 50% | > 50% | > 50% | > 50%
26 | C[C@H](Nc1cncc(-n2cnc3cc(NC(=O)C4CCCNC4)ccc32)n1)c1ccccc1 (stereo partly shown) | > 50% | > 50% | > 50% | > 50% | > 50%
27 | C[C@H](Nc1cncc(-n2cnc3cc(NS(=O)(=O)c4ccccc4)ccc32)n1)c1ccccc1 | > 50% | > 50% | < 50% | < 50% | > 50%
28 | C[C@H](Nc1cncc(-n2cnc3cc(C(=O)NCCCCN4CCOCC4)ccc32)n1)c1ccccc1 | > 50% | > 50% | > 50% | > 50% | > 50%
29 | CC(Nc1cncc(-n2cnc3ccc(CN4CCN(C)CC4)cc32)n1)c1ccc(F)cc1 (stereo not shown) | < 50% | < 50% | < 50% | > 50% | > 50%
